Assay results: patent US20240246979A1, “cGAS INHIBITORS” (Eli Lilly and Company, priority 2022, published 2024)

Legend:
cGAS [1] = target: T1, cGAS (Homo sapiens, UniProt Q8N884); experiment: Cellular assay to measure cGAS activity (IFNb AlphaLISA in THP1 cells stimulated by RDG-Adenovirus-GFP); format: cell-based; set-up: host or cells: THP1 cells differentiated with PMA and stimulated with RDG-Adenovirus-GFP; conditions: PMA-differentiated THP1 cells, RDG-Adenovirus-GFP at 1000 MOI; inhibition of IFNb production as marker for cGAS activity
T1 sequence (Q8N884 whole entry): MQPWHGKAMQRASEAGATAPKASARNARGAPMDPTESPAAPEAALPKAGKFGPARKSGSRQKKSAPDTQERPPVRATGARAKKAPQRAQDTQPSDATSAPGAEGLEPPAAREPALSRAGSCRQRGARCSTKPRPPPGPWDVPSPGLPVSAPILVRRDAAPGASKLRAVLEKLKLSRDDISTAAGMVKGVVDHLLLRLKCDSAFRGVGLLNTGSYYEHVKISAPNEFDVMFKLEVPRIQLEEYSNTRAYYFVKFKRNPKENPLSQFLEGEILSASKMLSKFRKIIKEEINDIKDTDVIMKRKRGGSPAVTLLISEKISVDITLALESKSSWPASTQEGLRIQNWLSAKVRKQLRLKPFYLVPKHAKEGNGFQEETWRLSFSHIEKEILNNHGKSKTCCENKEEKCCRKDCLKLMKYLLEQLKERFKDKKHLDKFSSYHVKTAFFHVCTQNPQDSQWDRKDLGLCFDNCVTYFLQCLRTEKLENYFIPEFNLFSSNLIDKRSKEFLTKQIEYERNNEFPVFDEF
Procedure, shortened: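 The readout is secreted IFNb measured by AlphaLISA after overnight compound exposure. THP1 cells, differentiated with PMA for 24 h and rested overnight, were infected with RDG-Adenovirus-GFP (1000 MOI, 4 h) before compounds were added; IC50 came from a 4-parameter logistic fit of inhibition against log concentration.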

cGAS [2] = target: T1, cGAS; experiment: In vitro inhibition assay of cGAS activity (cGAMP production, RapidFire mass spectrometry); format: biochemical; set-up: Insert cDNA encoding full-length of human cGAS; His6; made in house; host or cells: E. coli BL21(DE3); conditions: 10 nM recombinant human cGAS, 60 nM 75-bp dsDNA, 50 μM ATP, 50 μM GTP, 3 hrs
Procedure, shortened: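 Reactions in 10 mM Tris-Cl pH 7.5, 5 mM MgCl2, 0.01% Triton X-100 contained serially diluted compound, 10 nM recombinant cGAS, dsDNA activator and 50 μM each of ATP and GTP, run 3 hrs at ambient temperature. After formic acid quench, cGAMP output was measured by mass spectrometry and percent inhibition versus log concentration was fitted for IC50.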

Compound | IC50 (cGAS [1]) | IC50 (cGAS [2])
C[C@H]1C(=O)NCCc2c1c1c(NC(=O)CO)cc(Cl)c(Cl)c1n2C(F)F (single isomer, unassigned) [Example 145, (R)—N-(7,8-Dichloro-6-(difluoromethyl)-1-methyl-2-oxo-1,2,3,4,5,6-hexahydroazepino[4,5-b]indol-10-yl)-2-hydroxyacetamide or (S)—N-(7,8-Dichloro-6-(difluoromethyl)-1-methyl-2-oxo-1,2,3,4,5,6-hexahydroazepino[4,5-b]indol-10-yl)-2-hydroxyacetamide] | 287 nM | 12.3 nM
C[C@@H]1CNC(=O)Cc2c1[nH]c1c(Cl)c(Cl)cc(-c3cnn(C)n3)c21 (single isomer, unassigned) [Example 146] | 300 nM | 27.2 nM
C[C@@H]1CNC(=O)Cc2c1[nH]c1c(Cl)c(Cl)cc(-c3cnn(C)n3)c21 (single isomer, unassigned) [Example 147] | 5170 nM | 237 nM
C[C@@H]1CNC(=O)Cc2c1[nH]c1c(Cl)c(Cl)cc(OCC#N)c21 (single isomer, unassigned) [Example 148] | 1390 nM | 41.4 nM
C[C@@H]1CNC(=O)Cc2c1[nH]c1c(Cl)c(Cl)cc(OCC#N)c21 (single isomer, unassigned) [Example 149] | 3080 nM | 1560 nM
C[C@@H]1CNC(=O)[C@@H](C)c2c1[nH]c1c(Cl)c(Cl)cc(CC#N)c21 (single isomer, unassigned) [Example 150] | 2120 nM | 25.9 nM
C[C@@H]1C(=O)NC[C@H](C)c2[nH]c3c(Cl)c(Cl)cc(CC#N)c3c21 (single isomer, unassigned) [Example 151] | 1770 nM | 19.7 nM
C[C@@H]1C(=O)NC[C@H](C)c2[nH]c3c(Cl)c(Cl)cc(CC#N)c3c21 (single isomer, unassigned) [Example 152] | 5310 nM | 948 nM
C[C@@H]1CNC(=O)[C@@H](C)c2c1[nH]c1c(Cl)c(Cl)cc(CC#N)c21 (single isomer, unassigned) [Example 153] | > 10000 nM | 2420 nM
C[C@@H]1CNC(=O)[C@@H](C)c2c1[nH]c1c(Cl)c(Cl)cc(NCCO)c21 (single isomer, unassigned) [Example 154] | 394 nM | 12.4 nM
C[C@@H]1CNC(=O)[C@H](C)c2c1[nH]c1c(Cl)c(Cl)cc(NCCO)c21 (single isomer, unassigned) [Example 155] | 655 nM | 17.7 nM
C[C@@H]1CNC(=O)[C@H](C)c2c1[nH]c1c(Cl)c(Cl)cc(NCCO)c21 (single isomer, unassigned) [Example 156] | > 10000 nM | 1810 nM
C[C@@H]1CNC(=O)[C@@H](C)c2c1[nH]c1c(Cl)c(Cl)cc(NCCO)c21 (single isomer, unassigned) [Example 157] | > 10000 nM | 6680 nM
C[C@@H]1CNC(=O)[C@@H](C)c2c1[nH]c1c(Cl)c(Cl)cc(NC(=O)CO)c21 (single isomer, unassigned) [Example 160, N-((1S,5R)-7,8-Dichloro-1,5-dimethyl-2-oxo-1,2,3,4,5,6-hexahydroazepino[4,5-b]indol-10-yl)-2-hydroxyacetamide or N-((1R,5S)-7,8-Dichloro-1,5-dimethyl-2-oxo-1,2,3,4,5,6-hexahydroazepino[4,5-b]indol-10-yl)-2-hydroxyacetamide] | 256 nM | 13 nM
C[C@@H]1CNC(=O)[C@@H](C)c2c1[nH]c1c(Cl)c(Cl)cc(NC(=O)CO)c21 (single isomer, unassigned) [Example 161, N-((1S,5R)-7,8-Dichloro-1,5-dimethyl-2-oxo-1,2,3,4,5,6-hexahydroazepino[4,5-b]indol-10-yl)-2-hydroxyacetamide or N-((1R,5S)-7,8-Dichloro-1,5-dimethyl-2-oxo-1,2,3,4,5,6-hexahydroazepino[4,5-b]indol-10-yl)-2-hydroxyacetamide] | > 10000 nM | 3730 nM
COCC[C@@H]1CNC(=O)Cc2c1[nH]c1c(Cl)c(Cl)cc(-c3cnn(C)n3)c21 (single isomer, unassigned) [Example 167] | 624 nM | 12.8 nM
COCC[C@H]1CNC(=O)Cc2c1[nH]c1c(Cl)c(Cl)cc(-c3cnn(C)n3)c21 (single isomer, unassigned) [Example 168] | 4600 nM | 109 nM
COCC[C@H]1CNC(=O)[C@H](C)c2c1[nH]c1c(Cl)c(Cl)cc(NCCO)c21 (single isomer, unassigned) [Example 171] | 483 nM | 7.84 nM
COCC[C@H]1CNC(=O)[C@H](C)c2c1[nH]c1c(Cl)c(Cl)cc(NCCO)c21 (single isomer, unassigned) [Example 172] | > 10000 nM | 1810 nM
COCC[C@H]1CNC(=O)[C@@H](C)c2c1[nH]c1c(Cl)c(Cl)cc(NCCO)c21 (single isomer, unassigned) [Example 173] | 1610 nM | 14.7 nM
COCC[C@H]1CNC(=O)[C@@H](C)c2c1[nH]c1c(Cl)c(Cl)cc(NCCO)c21 (single isomer, unassigned) [Example 174] | > 10000 nM | 361 nM
Cn1ncc(-c2cc(Cl)c(Cl)c3[nH]c4c(c23)CC(=O)NC[C@H]4CCN2CCOCC2)n1 (single isomer, unassigned) [Example 175] | 1440 nM | 54.6 nM
C[C@@H]1C(=O)NCCc2[nH]c3c(Cl)c(Cl)cc(OCc4cocn4)c3c21 (single isomer, unassigned) [Example 178, (S)-7,8-Dichloro-1-methyl-10-(oxazol-4-ylmethoxy)-3,4,5,6-tetrahydroazepino[4,5-b]indol-2(1H)-one or (R)-7,8-dichloro-1-methyl-10-(oxazol-4-ylmethoxy)-3,4,5,6-tetrahydroazepino[4,5-b]indol-2(1H)-one] | 311 nM | 10.8 nM
C[C@@H]1C(=O)NCCc2[nH]c3c(Cl)c(Cl)cc(OCc4cocn4)c3c21 (single isomer, unassigned) [Example 179, (S)-7,8-Dichloro-1-methyl-10-(oxazol-4-ylmethoxy)-3,4,5,6-tetrahydroazepino[4,5-b]indol-2(1H)-one or (R)-7,8-dichloro-1-methyl-10-(oxazol-4-ylmethoxy)-3,4,5,6-tetrahydroazepino[4,5-b]indol-2(1H)-one] | > 10000 nM | 2120 nM
C[C@H](O)C(=O)Nc1cc(Cl)c(Cl)c2[nH]c3c(c12)[C@@H](C)C(=O)NCC3(C)C (single isomer, unassigned) [Example 181, (S)—N—((R)-7,8-Dichloro-1,5,5-trimethyl-2-oxo-1,2,3,4,5,6-hexahydroazepino[4,5-b]indol-10-yl)-2-hydroxypropanamide or (S)—N—((S)-7,8-dichloro-1,5,5-trimethyl-2-oxo-1,2,3,4,5,6-hexahydroazepino[4,5-b]indol-10-yl)-2-hydroxypropanamide] | > 10000 nM | > 39800 nM
C[C@H](O)C(=O)Nc1cc(Cl)c(Cl)c2[nH]c3c(c12)[C@@H](C)C(=O)NCC3(C)C (single isomer, unassigned) [Example 182, (S)—N—((R)-7,8-Dichloro-1,5,5-trimethyl-2-oxo-1,2,3,4,5,6-hexahydroazepino[4,5-b]indol-10-yl)-2-hydroxypropanamide or (S)—N—((S)-7,8-dichloro-1,5,5-trimethyl-2-oxo-1,2,3,4,5,6-hexahydroazepino[4,5-b]indol-10-yl)-2-hydroxypropanamide] | 1180 nM | 45.6 nM
COCCOc1cc(Cl)c(Cl)c2[nH]c3c(c12)[C@H](C)C(=O)NCC3(C)C (single isomer, unassigned) [Example 184, (S)-7,8-Dichloro-10-(2-methoxyethoxy)-1,5,5-trimethyl-3,4,5,6-tetrahydroazepino[4,5-b]indol-2(1H)-one or (R)-7,8-dichloro-10-(2-methoxyethoxy)-1,5,5-trimethyl-3,4,5,6-tetrahydroazepino[4,5-b]indol-2(1H)-one] | 1370 nM | 17.4 nM
COCCOc1cc(Cl)c(Cl)c2[nH]c3c(c12)[C@H](C)C(=O)NCC3(C)C (single isomer, unassigned) [Example 185, (S)-7,8-Dichloro-10-(2-methoxyethoxy)-1,5,5-trimethyl-3,4,5,6-tetrahydroazepino[4,5-b]indol-2(1H)-one or (R)-7,8-Dichloro-10-(2-methoxyethoxy)-1,5,5-trimethyl-3,4,5,6-tetrahydroazepino[4,5-b]indol-2(1H)-one] | > 10000 nM | 1890 nM
C[C@@H]1C(=O)NCCc2c1c1c(NC(=O)CO)cc(Cl)c(Cl)c1n2CC(F)(F)F (single isomer, unassigned) [Example 186, (S)—N-(7,8-Dichloro-1-methyl-2-oxo-6-(2,2,2-trifluoroethyl)-1,2,3,4,5,6-hexahydroazepino[4,5-b]indol-10-yl)-2-hydroxyacetamide or (R)—N-(7,8-Dichloro-1-methyl-2-oxo-6-(2,2,2-trifluoroethyl)-1,2,3,4,5,6-hexahydroazepino[4,5-b]indol-10-yl)-2-hydroxyacetamide] | 4340 nM | 48.9 nM
